Columns and labels:
Ac-PGP = assay: Loss of function of Ac-PGP by treatment with RTR in vivo; parameters: species or system mouse
[1] = system: probiotic strains RSB11, RSB12, or RSB13; assay: Culture growth of probiotic strains with herbal extracts or Vitamin D; type: cell-based, Lactobacillus; conditions: number of colonies per plate; FIG. 11
C57BL/6 mouse pups = assay: In vivo (mouse) dysbiosis model of chronic lung disease, LPS-treated pups

## Arginine-Threonine-Arginine [RTR]
Ac-PGP; in vivo, FIG. 9
  chronic lung disease: protective
Ac-PGP; noxious stimuli, LPS+RTR vs LPS alone, P<0.05, FIG. 9B
  RAC: significantly higher
Ac-PGP; noxious stimuli, LPS+RTR vs LPS alone, P<0.05, FIG. 9C
  MPO concentrations: significantly lower
Ac-PGP; noxious stimuli, LPS+RTR vs LPS alone, P<0.05, FIG. 9D
  RVH: significantly less severe

## N-acetyl-Proline-Glycine-Proline [Ac-PGP]
mice; BALF, normoxia and noxious stimuli, P<0.05, FIG. 8C
  NE concentrations: increased
mice; ELISA, normoxia and noxious stimuli, P<0.05, FIG. 8B
  MPO concentration: increased
mice; gain of function, in vivo, FIG. 8
  chronic lung disease: causes chronic lung disease
mice; normoxia and noxious stimuli, P<0.05, FIG. 8A
  RAC counts: decreased
mice; normoxia and noxious stimuli, P<0.05, FIG. 8D
  right ventricular hypertrophy (RVH): increased

## Vitamin D
[1]
  culture growth of probiotic strains RSB11, RSB12, RSB13: do not have an inhibitory effect

## lipopolysaccharide [LPS]
C57BL/6 mouse pups; BALF, by HPLC, vs controls, P<0.05, FIG. 7E
  Ac-PGP levels: significantly increased
C57BL/6 mouse pups; BALF, vs controls, P<0.05, FIG. 7C
  myeloperoxidase (MPO) levels: significantly increased
C57BL/6 mouse pups; BALF, vs controls, P<0.05, FIG. 7D
  neutrophil elastase (NE) levels: significantly increased
C57BL/6 mouse pups; LPS-treated C57BL/6 mouse pups, FIG. 7A
  lung tissue structure: alveolar hypoplasia and simplification
C57BL/6 mouse pups; vs controls, P<0.05, FIG. 7B
  radial alveolar counts (RAC): significantly decreased

— patent US20220401500A1, “BACTERIA AND HERBAL EXTRACT NUTRACEUTICAL BLENDS FOR LUNG HEALTH MAINTENANCE” (THE UAB RESEARCH FOUNDATION, priority 2021, published 2022)
